ChEMBL document CHEMBL4251690, “Histone Deacetylase Inhibitors as Treatment for Targeting Multiple Components in Cancer Therapy” (ACS Med Chem Lett, 2018)

What was measured:
Assay type in all cases: cell-based
[1] = target: T1, Histone-lysine N-methyltransferase EHMT2 (Homo sapiens, UniProt Q96KQ7); assay: Inhibition of G9a in human MDA-MB-231 cells assessed as reduction in H3K9me2 level after 2 days by immunofluorescence in-cell western analysis
T1 sequence (Q96KQ7 whole entry): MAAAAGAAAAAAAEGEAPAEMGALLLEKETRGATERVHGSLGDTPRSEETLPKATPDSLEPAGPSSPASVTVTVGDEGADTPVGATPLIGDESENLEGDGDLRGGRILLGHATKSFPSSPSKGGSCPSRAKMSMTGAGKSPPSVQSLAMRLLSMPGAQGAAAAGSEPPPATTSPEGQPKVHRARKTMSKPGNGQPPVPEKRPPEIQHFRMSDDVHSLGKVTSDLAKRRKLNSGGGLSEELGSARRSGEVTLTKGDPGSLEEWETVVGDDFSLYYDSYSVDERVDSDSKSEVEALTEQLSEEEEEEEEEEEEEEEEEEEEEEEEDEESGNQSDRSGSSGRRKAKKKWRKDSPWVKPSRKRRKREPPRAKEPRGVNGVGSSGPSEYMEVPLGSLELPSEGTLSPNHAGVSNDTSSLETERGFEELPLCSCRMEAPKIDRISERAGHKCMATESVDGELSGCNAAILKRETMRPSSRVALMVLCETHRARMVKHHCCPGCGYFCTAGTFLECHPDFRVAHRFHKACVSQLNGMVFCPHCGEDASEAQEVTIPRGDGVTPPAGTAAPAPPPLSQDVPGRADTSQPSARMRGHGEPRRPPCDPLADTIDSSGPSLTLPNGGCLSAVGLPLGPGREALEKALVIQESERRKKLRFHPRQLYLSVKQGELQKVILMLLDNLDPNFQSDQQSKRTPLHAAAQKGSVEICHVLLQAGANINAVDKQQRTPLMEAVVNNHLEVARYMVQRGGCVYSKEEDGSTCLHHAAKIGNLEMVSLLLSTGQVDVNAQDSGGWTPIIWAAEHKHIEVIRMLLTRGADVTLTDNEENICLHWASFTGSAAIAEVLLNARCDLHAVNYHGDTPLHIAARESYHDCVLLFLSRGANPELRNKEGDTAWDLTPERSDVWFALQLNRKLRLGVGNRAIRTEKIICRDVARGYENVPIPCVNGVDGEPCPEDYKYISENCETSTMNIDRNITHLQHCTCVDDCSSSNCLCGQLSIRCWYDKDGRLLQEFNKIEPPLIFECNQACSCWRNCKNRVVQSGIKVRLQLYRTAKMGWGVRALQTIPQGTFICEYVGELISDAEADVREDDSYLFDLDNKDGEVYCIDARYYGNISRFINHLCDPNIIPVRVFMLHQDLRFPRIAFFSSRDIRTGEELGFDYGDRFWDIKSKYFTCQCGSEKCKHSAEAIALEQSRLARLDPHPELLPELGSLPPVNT

Histone deacetylase [2] = assay: Inhibition of HDAC in human HeLa cells using Boc-K(Ac)-AMC as substrate by fluorescence assay
Histone deacetylase [3] = assay: Inhibition of HDAC in human A549 cells using Boc-K(Ac)-AMC as substrate by fluorescence assay
Histone deacetylase [4] = assay: Inhibition of HDAC in human K562 cells using Boc-K(Ac)-AMC as substrate by fluorescence assay

Compound	IC50 [1]	IC50 (Histone deacetylase [2])	IC50 (Histone deacetylase [3])	IC50 (Histone deacetylase [4])
CNC(=O)CCCCC(=O)NCCNc1nc(NC2CCN(C)CC2)c2ccc(OC)cc2n1	47 µM	–	–	–
COc1ccc2c(NC3CCN(Cc4ccccc4)CC3)nc(NCCNC(=O)CCCCCC(=O)NO)nc2c1	–	13.8 µM	> 100 µM	5.735 µM
COc1ccc2c(NCCNC(=O)CCCCCCC(=O)NO)nc(N3CCCN(C)CC3)nc2c1	–	> 100 µM	> 100 µM	> 100 µM
COc1ccc2c(NC3CCN(Cc4ccccc4)CC3)nc(NCCNC(=O)CCCCCCC(=O)NO)nc2c1	–	15.33 µM	> 100 µM	27.75 µM
